≈ marks a conversion by molar mass, not a printed value. Where “and” joins values, the source holds several entries; their conditions need not be identical. Identical values can stand only once. Entries after “also recorded” stand apart in the source; their conditions may differ. Where only a bound is given, the exact number is not on record here.

The values that follow come from US11819503B2 (priority 2019, dated 2023).

The test system of series [1] is C. immitis. Set-up: species or system ICR mice. As to conditions: mouse, in vivo.
Series [2] relates to C. immitis. Details: species or system ICR mice. As to conditions: mouse, in vivo. This is another data set of the same source.
For series [3], the system named is C. immitis. Set-up: species or system ICR mice. The settings on record: mouse, in vivo. The source holds these as a separate data set.
Series [4] relates to C. immitis (isolate UTHSCSA DI17-143). The series is described as follows: microbe, parasite or virus in culture. The settings on record: Coccidioides immitis. The series is classed as cell-based.
Series [5] deals with dihydroorotate dehydrogenase in yeast, including Candida and Cryptococcus species. The settings on record: cited from earlier work.
The target of series [6] is recombinant human enzyme (dihydroorotate dehydrogenase) (Homo sapiens, UniProt Q02127). The settings on record: cited from earlier work.
Series [7] has as its system Coccidioides posadasii (n = 24). In words: microbe, parasite or virus in culture. The class given is cell-based. The settings on record: for MIC50 / MIC90 / MIC: Coccidioides posadasii; for MIC: read-out: GM MIC.
Series [8] deals with Coccidioides immitis (n = 21). In words: microbe, parasite or virus in culture. The series is classed as cell-based. As to conditions: for MIC50 / MIC90 / MIC: Coccidioides immitis; for MIC: read-out: GM MIC.
Series [9] has as its system All Coccidioides isolates (n = 59). The series is described as follows: microbe, parasite or virus in culture. The class given is cell-based, Coccidioides species. The settings on record: for MIC: read-out: GM MIC.
The conditions of series [10]: mouse, in vivo, po.
Another series is described as follows: in vivo. The settings on record: mouse; for AUC(0-t): AUC 0-12.
Another series deals with coccidioidomycosis. The settings on record: human, in vivo.

Sequence of recombinant human enzyme (dihydroorotate dehydrogenase) (Q02127 whole entry): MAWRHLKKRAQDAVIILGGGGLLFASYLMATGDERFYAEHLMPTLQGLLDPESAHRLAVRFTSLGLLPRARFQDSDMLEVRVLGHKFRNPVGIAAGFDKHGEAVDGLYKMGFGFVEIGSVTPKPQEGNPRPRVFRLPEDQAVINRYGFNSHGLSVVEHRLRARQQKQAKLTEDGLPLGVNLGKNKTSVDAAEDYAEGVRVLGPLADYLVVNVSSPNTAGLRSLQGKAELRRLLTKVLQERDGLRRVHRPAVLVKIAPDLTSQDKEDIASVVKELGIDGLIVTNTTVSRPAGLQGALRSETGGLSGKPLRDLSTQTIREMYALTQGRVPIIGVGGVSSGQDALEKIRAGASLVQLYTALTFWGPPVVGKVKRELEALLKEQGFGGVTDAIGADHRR

Regarding `OC(Cn1cncn1)(Cn1cncn1)c1ccc(F)cc1F` [fluconazole, reference compound], the median survival time in the series with C. immitis [1] is 30 days and 28 days. For the same molecule, in the series with C. immitis [2], the “brain fungal burden (mean of combined results)” value is given as 1.33 log 10 CFU/g. Also, the “rebound in fungal burdens once therapy was stopped” value in the series with C. immitis [3] is “rebound in fungal burdens”. Besides, the MIC in series [4] came out at 16 µg/mL (≈ 52.2 µM).
Turning to `Cc1cc(-c2ccccc2)c(C(=O)C(=O)Nc2ccc(N3CCN(c4ncc(F)cn4)CC3)cc2)n1C` [olorofim, 2-(1,5-dimethyl-3-phenyl-1H-pyrrol-2-yl)-N-(4-(4-(5-fluoropyrimidin-2-yl)piperazin-1-yl)phenyl)-2-oxoacetamide], in the series on C. immitis [1], the “day on which mice began to succumb to infection” value was determined as 18 days. Moreover, the median survival time with C. immitis [1] is 22 days and 26 days and 23.5 days and > 30 days. The “percentage of mice that survived to the study endpoint” value in the series on C. immitis [1] was 80%. Further, the “inhibition of dihydroorotate dehydrogenase” value in series [5] and in [6] was “little to no inhibition” throughout. In addition, in the series on C. immitis [2], the “brain fungal burden (mean CFU count)” value was 4.36 log 10 CFU/g and 3.41 log 10 CFU/g. Besides, the “fungal burdens, three times daily compared to twice daily administration” value with C. immitis [2] is reported as “further reductions in fungal burdens”. The MIC range in [7] and in series [8] was no more than 0.008 to 0.015 µg/mL each time. The MIC50 in series [7], in series [8] and in [9] was no more than 0.008 µg/mL in each case. The MIC90 in series [7], in [8] and in series [9] was 0.015 µg/mL (≈ 0.0301 µM) throughout. Moreover, the MIC in series [7] stood at 0.009 µg/mL (≈ 0.0181 µM); in [8] it was 0.009 µg/mL (≈ 0.0181 µM); in series [4], 0.015 µg/mL (≈ 0.0301 µM); in [9], 0.011 µg/mL (≈ 0.0221 µM). Besides, in the series on C. immitis [3], the “mice with no fungal colonies in plated whole-brain homogenates” value was 7 of the 10 and 7 of 10. In series [10], the “Levels in brain compared with plasma” value is “slightly lower than those in plasma”. Also, the “Levels in lung compared with plasma” value in [10] was “slightly higher”. Besides, the “exposure in females compared with males” value in [10] is recorded as “slightly higher in females”. For the same molecule, the Tmax is no more than 1 h in the series “in vivo” (both, Plasma Tmax); 1 h in “in vivo” (female, po, 10 mg/kg, Tmax); 1 h in “in vivo” (female, po, 30 mg/kg, Tmax); 0.5 h in the series “in vivo” (male, po, 10 mg/kg, Tmax); 1 h in the series “in vivo” (male, po, 20 mg/kg, Tmax); 1 h in the series “in vivo” (male, po, 30 mg/kg, Tmax). In addition, the AUC(0-t) is 11400 ng·h/mL in the series “in vivo” (female, po, 10 mg/kg); 26600 ng·h/mL in the series “in vivo” (female, po, 20 mg/kg); 30800 ng·h/mL in “in vivo” (female, po, 30 mg/kg); 8700 ng·h/mL in the series “in vivo” (male, po, 10 mg/kg); 22100 ng·h/mL in the series “in vivo” (male, po, 20 mg/kg); 27700 ng·h/mL in “in vivo” (male, po, 30 mg/kg). Also, the Cmax is 4610 ng/mL in the series “in vivo” (female, po, 20 mg/kg); 4110 ng/mL in the series “in vivo” (female, po, 30 mg/kg); 3910 ng/mL in “in vivo” (male, po, 20 mg/kg); 4110 ng/mL in “in vivo” (male, po, 30 mg/kg). The molecule also had a half-life in “in vivo” of roughly 2 h. The “clinical status at 3 months” value in the series on coccidioidomycosis is “no longer required the use of oxygen and was able to walk unaided”. The “clinical status at 6 months” value with coccidioidomycosis is “continues to be asymptomatic 6 months after initiation of olorofim therapy”. Also, in the series on coccidioidomycosis, the symptomatic response result is listed as “symptomatic improvements within a few weeks; also recorded: symptomatic improvement within three weeks”. The “time to symptomatic improvement” value in the series with coccidioidomycosis is given as no more than 4 weeks.
Regarding `C[C@@H](c1ncncc1F)[C@](O)(Cn1cncn1)c1ccc(F)cc1F` [voriconazole, reference compound], in series [7], the MIC range was no more than 0.03 to 0.25 µg/mL, the MIC50 is 0.125 µg/mL (≈ 0.358 µM), the MIC90 was determined as 0.125 µg/mL (≈ 0.358 µM) and the MIC amounted to 0.103 µg/mL (≈ 0.295 µM). In [8], the MIC range was no more than 0.03 to 0.25 µg/mL, the MIC50 is 0.06 µg/mL (≈ 0.172 µM), the MIC90 was 0.125 µg/mL (≈ 0.358 µM) and the MIC turned out to be 0.072 µg/mL (≈ 0.206 µM). In addition, the MIC in series [4] worked out at 0.125 µg/mL (≈ 0.358 µM). In series [9], the MIC50 worked out at 0.125 µg/mL (≈ 0.358 µM), the MIC90 came out at 0.25 µg/mL (≈ 0.716 µM) and the MIC was 0.113 µg/mL (≈ 0.323 µM).
